The results in this text go back to patent publication US12686673B2 (Blueprint Medicines Corporation, priority 2020, dated 2026).

As a reminder, the IC50 is the concentration needed to halve the response being measured.

Where a name gives a salt, the structure may show the parent alone. Read-outs that look alike come from different tables or passages of the source.

What all share (assay type): cell-based
In assay [1] the target is EGFR(D770_N771insSVD) expressing Ba/F3 stable cell line (Homo sapiens, UniProt P00533, DUP768-770, cells depend on it). The assay can be described thus: Cellular proliferation (Alamar Blue) assay, EGFR D770_N771insSVD Ba/F3. To be noted: 72 hr, read-out: D770 IC50. The procedure: (§1) • 1. EGFR(D770_N771insSVD) expressing Ba/F3 stable cell line • 2. EGFR (A767_dupASV) expressing Ba/F3 stable cell line • 3. A431 cells • 4. EGFR (H773insNPH) expressing Ba/F3 stable cell line • 5. HER2 (A775_G776insYVMA) expressing Ba/F3 stable cell line Assay Procedure: • 1. Seed cells at 5000 for A431 and 15,000 cells for Ba/F3 in 100 μL/well in complete media (for A431: DMEM with […] and for Ba/F3 cells: RPMI with 10% FBS) in 96-well tissue culture plate. Leave outer wells without cells for background measurements. Incubate at 37 degree Celsius in […] humidified incubator for 16-18 hours. • 2. Add 0.025 ml of 5× concentration compound dilution or DMSO control. Final compound concentration range is 10-0.0005 μM prepared in 3-fold serial dilutions. Incubate for 72 hr at 37 degree Celsius in […] humidified incubator. • 3. Add 0.0125 ml Alamar Blue™ reagent to each well with multi-channel pipette and tap gently on each side of the plate to mix. Incubate for 3 hours at 37 degree Celsius in 5% CO2 humidified incubator. • 4. […] Data analysis was performed using XLfit 5.5.0.5.
(In general: The colour change of resazurin is a common sign of viable cells or microbes.)

Assay [2] addresses EGFR (A767_dupASV) expressing Ba/F3 stable cell line (Homo sapiens, UniProt P00533, DUP767-769, cells depend on it). The assay is described as follows: Cellular proliferation (Alamar Blue) assay, EGFR A767_dupASV Ba/F3. To be noted: 72 hr, read-out: A767 IC50. The protocol:
as §1

The subject of assay [3] is A431 cells. The assay is described as follows: Cellular proliferation (Alamar Blue) assay, A431. The protocol: as §1
The mark [4] stands for this setting: Homo sapiens, A-431; A431 cells, Alamar Blue, 72 hr; read-out: A431 IC50.
[5] abbreviates: Homo sapiens, A-431; A431 cells, 72 hr, Alamar Blue; read-out: A431 IC50.

Chain of EGFR (A767_dupASV) expressing Ba/F3 stable cell line (P00533 with tags, fused parts or gaps DUP767-769): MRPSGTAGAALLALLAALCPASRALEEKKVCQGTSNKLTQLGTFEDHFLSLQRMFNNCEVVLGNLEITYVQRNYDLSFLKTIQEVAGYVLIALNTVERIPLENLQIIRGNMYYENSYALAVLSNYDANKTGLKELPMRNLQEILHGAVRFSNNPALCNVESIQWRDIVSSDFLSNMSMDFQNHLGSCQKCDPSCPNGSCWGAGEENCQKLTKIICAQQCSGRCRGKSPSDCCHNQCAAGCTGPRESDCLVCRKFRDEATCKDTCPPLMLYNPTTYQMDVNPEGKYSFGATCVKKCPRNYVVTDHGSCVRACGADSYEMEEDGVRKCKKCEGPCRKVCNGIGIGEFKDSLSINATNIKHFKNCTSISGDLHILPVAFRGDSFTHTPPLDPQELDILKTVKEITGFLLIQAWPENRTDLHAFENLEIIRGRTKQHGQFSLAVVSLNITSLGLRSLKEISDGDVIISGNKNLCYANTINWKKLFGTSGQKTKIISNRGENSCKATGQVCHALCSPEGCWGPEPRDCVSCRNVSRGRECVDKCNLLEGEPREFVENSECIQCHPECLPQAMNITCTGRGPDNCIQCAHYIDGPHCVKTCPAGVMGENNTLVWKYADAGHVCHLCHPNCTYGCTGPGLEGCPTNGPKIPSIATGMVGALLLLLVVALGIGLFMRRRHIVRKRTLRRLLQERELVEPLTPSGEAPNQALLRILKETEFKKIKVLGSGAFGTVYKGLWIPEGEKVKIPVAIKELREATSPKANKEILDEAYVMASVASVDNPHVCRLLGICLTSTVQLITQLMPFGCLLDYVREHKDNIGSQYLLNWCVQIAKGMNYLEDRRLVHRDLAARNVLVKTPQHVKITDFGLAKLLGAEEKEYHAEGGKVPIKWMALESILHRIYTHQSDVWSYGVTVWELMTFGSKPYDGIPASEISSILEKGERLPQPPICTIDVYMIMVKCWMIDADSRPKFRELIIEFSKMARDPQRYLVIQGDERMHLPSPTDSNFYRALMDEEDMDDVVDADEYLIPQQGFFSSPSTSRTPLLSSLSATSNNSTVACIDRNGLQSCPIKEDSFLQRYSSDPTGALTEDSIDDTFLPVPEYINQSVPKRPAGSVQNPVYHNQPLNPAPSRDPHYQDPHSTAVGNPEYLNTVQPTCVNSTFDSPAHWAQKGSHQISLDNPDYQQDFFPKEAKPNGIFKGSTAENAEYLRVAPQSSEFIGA
Chain of EGFR(D770_N771insSVD) expressing Ba/F3 stable cell line (P00533 with tags, fused parts or gaps DUP768-770): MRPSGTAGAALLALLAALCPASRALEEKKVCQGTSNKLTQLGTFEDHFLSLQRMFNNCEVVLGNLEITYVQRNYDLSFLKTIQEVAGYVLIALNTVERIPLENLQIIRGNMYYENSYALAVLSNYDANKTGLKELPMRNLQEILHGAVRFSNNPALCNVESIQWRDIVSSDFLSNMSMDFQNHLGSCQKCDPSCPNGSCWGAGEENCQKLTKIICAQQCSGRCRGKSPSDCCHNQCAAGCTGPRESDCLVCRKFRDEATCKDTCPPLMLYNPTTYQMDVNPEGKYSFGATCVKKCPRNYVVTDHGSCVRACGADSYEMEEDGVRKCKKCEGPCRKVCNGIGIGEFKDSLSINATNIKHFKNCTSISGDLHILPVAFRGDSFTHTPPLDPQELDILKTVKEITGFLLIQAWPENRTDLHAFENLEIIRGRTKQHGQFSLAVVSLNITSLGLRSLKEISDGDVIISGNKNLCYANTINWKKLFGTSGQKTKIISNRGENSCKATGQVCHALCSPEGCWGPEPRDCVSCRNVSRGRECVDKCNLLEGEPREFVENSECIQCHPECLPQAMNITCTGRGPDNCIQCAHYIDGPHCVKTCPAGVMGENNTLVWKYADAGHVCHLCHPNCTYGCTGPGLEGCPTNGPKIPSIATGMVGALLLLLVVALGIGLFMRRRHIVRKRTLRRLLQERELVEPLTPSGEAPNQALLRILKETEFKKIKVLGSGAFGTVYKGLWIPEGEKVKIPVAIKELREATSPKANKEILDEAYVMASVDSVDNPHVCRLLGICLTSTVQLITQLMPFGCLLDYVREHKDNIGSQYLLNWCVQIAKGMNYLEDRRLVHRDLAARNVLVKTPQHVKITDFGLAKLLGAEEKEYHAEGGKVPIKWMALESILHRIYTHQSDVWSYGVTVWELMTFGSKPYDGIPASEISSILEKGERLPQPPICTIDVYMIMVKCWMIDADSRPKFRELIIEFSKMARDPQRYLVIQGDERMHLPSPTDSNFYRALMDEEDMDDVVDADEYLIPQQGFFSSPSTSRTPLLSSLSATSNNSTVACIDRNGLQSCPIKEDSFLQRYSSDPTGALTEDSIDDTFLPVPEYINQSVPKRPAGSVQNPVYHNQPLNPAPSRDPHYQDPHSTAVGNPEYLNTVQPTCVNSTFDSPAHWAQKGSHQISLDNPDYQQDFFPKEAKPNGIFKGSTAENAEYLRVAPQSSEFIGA

As for `C=CC(=O)Nc1ccc(F)c(Nc2nc(Nc3ccc(=O)[nH]c3)ncc2Cl)c1` [Compound 2, N-(3-((5-chloro-2-((6-oxo-1,6-dihydropyridin-3-yl)amino)pyrimidin-4-yl)amino)-4-fluorophenyl)acrylamide], the GI50 in assay [1] is 9.24 µM; in assay [2] it was more than 10 µM. Also, the IC50 in assay [3] (setting [4]) is more than 10 µM.
In the case of `C=CC(=O)Nc1ccc(F)c(Nc2nc(-n3ccc(N)cc3=O)ncc2Cl)c1` [Compound 3, N-(3-((2-(4-amino-2-oxopyridin-1(2H)-yl)-5-chloropyrimidin-4-yl)amino)-4-fluorophenyl)acrylamide], the GI50 in assay [1] and in assay [2] was more than 10 µM each time. Also, the IC50 in assay [3] (setting [4]) was more than 10 µM.
Turning to `CN(C)C/C=C/C(=O)Nc1ccc(F)c(Nc2nc(Nc3cnn(C)c3)ncc2Cl)c1` [Compound 4, (E)-N-(3-((5-chloro-2-((1-methyl-1H-pyrazol-4-yl)amino)pyrimidin-4-yl)amino)-4-fluorophenyl)-4-(dimethylamino)but-2-enamide], the results for the GI50 in assay [1] and in assay [2] were 3 µM and 1.76 µM, respectively. For the same compound, the IC50 in assay [3] (setting [4]) amounted to 6.59 µM.
For the compound `C=CC(=O)Nc1ccc(Nc2nc(Nc3cnn(C)c3)ncc2Cl)c(F)c1` [Compound 10, N-(4-((5-chloro-2-((1-methyl-1H-pyrazol-4-yl)amino)pyrimidin-4-yl)amino)-3-fluorophenyl)acrylamide], the GI50 in assay [1] and in assay [2] was more than 10 µM in each case. The IC50 in assay [3] (setting [4]) worked out at 3.01 µM.
With `C=CC(=O)Nc1ccc(F)c(N(c2ccccc2)c2nc(Nc3cnn(C)c3)ncc2Cl)c1` [Compound 20, N-(3-((5-chloro-2-((1-methyl-1H-pyrazol-4-yl)amino)pyrimidin-4-yl)(phenyl)amino)-4-fluorophenyl)acrylamide], the GI50 in assay [1] amounted to 2.41 µM. In addition, the IC50 in assay [3] (setting [4]) was more than 10 µM.
For the compound `C=CC(=O)Nc1ccc(F)c(Nc2nc(Nc3cc(COC)n(C)n3)ncc2Cl)c1` [Compound 21, N-(3-((5-chloro-2-((5-(methoxymethyl)-1-methyl-1H-pyrazol-3-yl)amino)pyrimidin-4-yl)amino)-4-fluorophenyl)acrylamide], the GI50 in assay [1] was found to be 4.76 µM. Also, the IC50 in assay [3] (setting [4]) was more than 10 µM.
As to `Cc1cc(Nc2ncc(Cl)c(Nc3cc(NC(=O)/C=C/CN(C)C)ccc3F)n2)sn1` [Compound 27, (E)-N-(3-((5-chloro-2-((3-methylisothiazol-5-yl)amino)pyrimidin-4-yl)amino)-4-fluorophenyl)-4-(dimethylamino)but-2-enamide], the GI50 in assay [1] worked out at 2.62 µM; in assay [2], 1.99 µM. Besides, the IC50 in assay [3] (setting [4]) is more than 10 µM.
Taken in the same sequence, the figures for `C=CC(=O)Nc1ccc(F)c(Nc2nc(Nc3cccnc3F)ncc2-c2ccc(C(F)(F)F)cc2)c1` [Compound 38, N-(4-fluoro-3-((2-((2-fluoropyridin-3-yl)amino)-5-(4-(trifluoromethyl)phenyl)pyrimidin-4-yl)amino)phenyl)acrylamide] were 0.36 µM, 0.947 µM and 1.36 µM.
For `C=CC(=O)Nc1ccc(F)c(Nc2nc(Nc3ccccc3OC)ncc2-c2ccc(C(F)(F)F)cc2)c1` [Compound 39, N-(4-fluoro-3-((2-((2-methoxyphenyl)amino)-5-(4-(trifluoromethyl)phenyl)pyrimidin-4-yl)amino)phenyl)acrylamide trifluoroacetate], the results for the GI50 in assay [1] and in assay [2] were 3.04 µM and 8.29 µM, respectively. The IC50 in assay [3] (setting [4]) came to 2.93 µM.
For `C=CC(=O)Nc1ccc(F)c(Nc2nc(Nc3ccccc3Cl)ncc2-c2ccc(C(F)(F)F)cc2)c1` [Compound 40, N-(3-((2-((2-chlorophenyl)amino)-5-(4-(trifluoromethyl)phenyl)pyrimidin-4-yl)amino)-4-fluorophenyl)acrylamide trifluoroacetate] the same measures were more than 10 µM, more than 10 µM and 3.83 µM.
For `C=CC(=O)Nc1ccc(F)c(Nc2nc(Nc3csc(Cl)c3)ncc2-c2ccc(C(F)(F)F)cc2)c1` [Compound 41, N-(3-((2-((5-chlorothiophen-3-yl)amino)-5-(4-(trifluoromethyl)phenyl)pyrimidin-4-yl)amino)-4-fluorophenyl)acrylamide trifluoroacetate] the same measures were 1.66 µM, more than 10 µM and 7.33 µM.
Regarding `C=CC(=O)Nc1ccc(F)c(Nc2nc(NC3CCN(C)CC3)ncc2-c2ccc(C(F)(F)F)cc2)c1` [Compound 42, N-(4-fluoro-3-((2-((1-methylpiperidin-4-yl)amino)-5-(4-(trifluoromethyl)phenyl)pyrimidin-4-yl)amino)phenyl)acrylamide trifluoroacetate], the GI50 in assay [1] and in assay [2] was more than 10 µM throughout. The IC50 in assay [3] (setting [4]) was 8.99 µM.
Take `C=CC(=O)Nc1ccc(F)c(Nc2nc(NCCN(C)C)ncc2-c2ccc(C(F)(F)F)cc2)c1` [Compound 43, N-(3-((2-((2-(dimethylamino)ethyl)amino)-5-(4-(trifluoromethyl)phenyl)pyrimidin-4-yl)amino)-4-fluorophenyl)acrylamide trifluoroacetate]: the GI50 in assay [1] and in assay [2] was more than 10 µM throughout. Further, the IC50 in assay [3] (setting [4]) was determined as 3.67 µM.
On to `C=CC(=O)Nc1ccc(F)c(Nc2nc(Nc3ccc(N(C)C)cc3)ncc2-c2ccc(C(F)(F)F)cc2)c1` [Compound 44, N-(3-((2-((4-(dimethylamino)phenyl)amino)-5-(4-(trifluoromethyl)phenyl)pyrimidin-4-yl)amino)-4-fluorophenyl)acrylamide trifluoroacetate], for which the GI50 in assay [1] and in assay [2] was more than 10 µM in each case. The IC50 in assay [3] (setting [4]) worked out at 0.484 µM.
Take `C=CC(=O)Nc1ccc(F)c(Nc2nc(Nc3ccsc3)ncc2-c2ccc(C(F)(F)F)cc2)c1` [Compound 46, N-(4-fluoro-3-((2-(thiophen-3-ylamino)-5-(4-(trifluoromethyl)phenyl)pyrimidin-4-yl)amino)phenyl)acrylamide trifluoroacetate]: the values for the GI50 in assay [1] and in assay [2] were 0.973 µM and 2.74 µM, respectively. Besides, in assay [3] (setting [4]), the IC50 is 0.523 µM.
For the compound `C=CC(=O)Nc1cccc2c1ccn2-c1nc(Nc2cnn(C)c2)ncc1-c1ccc(C(F)(F)F)cc1` [Compound 81, N-(1-(2-((1-methyl-1H-pyrazol-4-yl)amino)-5-(4-(trifluoromethyl)phenyl)pyrimidin-4-yl)-1H-indol-4-yl)acrylamide], the GI50 in assay [1] and in assay [2] was more than 10 µM throughout.
As for `C=CC(=O)Nc1ccc(F)c(Nc2nc(Nc3cnn(C)c3)ncc2-c2ccc(N(C)C)nc2)c1` [Compound 107, N-(3-((5-(6-(dimethylamino)pyridin-3-yl)-2-((1-methyl-1H-pyrazol-4-yl)amino)pyrimidin-4-yl)amino)-4-fluorophenyl)acrylamide], the GI50 in assay [1] and in assay [2] was more than 10 µM throughout.
For `C=CC(=O)Nc1ccc(F)c(Nc2nc(Nc3cnn(C)c3)ncc2-c2ccccc2-c2ccccc2)c1` [Compound 263, N-(3-((5-([1,1′-biphenyl]-2-yl)-2-((1-methyl-1H-pyrazol-4-yl)amino)pyrimidin-4-yl)amino)-4-fluorophenyl)acrylamide], the IC50 in assay [3] (setting [5]) stood at 6.23 µM.
The same measure, in the same setting: the result for `C=CC(=O)Nc1ccc(F)c(Nc2nc(Nc3cnn(C)c3)ncc2-c2cccc3cc[nH]c23)c1` [Compound 265, N-(3-((5-(1H-indol-7-yl)-2-((1-methyl-1H-pyrazol-4-yl)amino)pyrimidin-4-yl)amino)-4-fluorophenyl)acrylamide] reads 4.89 µM.
